Data on 1 compound can be found in US20220062262A1, “GSNO REDUCTASE INHIBITOR AS AN ADJUNCT THERAPY WITH REMOTE ISCHEMIC CONDITIONING AND THROMBOLYTIC REPERFUSION THERAPIES IN STROKE” (KING ABDULAZIZ UNIVERSITY, priority 2020, published 2022).

This assay deals with tMCAo stroke in STZ-induced diabetic mice. Kind of assay: Reperfused tMCAo stroke model in STZ-induced diabetic male mice, with or without RIC therapy. The class given is in vivo. Particulars: for brain tissue oxygenation (PbtO2): 6 h post-reperfusion; for % infarct volume / % swelling / mean NDS: 24 h post-stroke. The source says: The tMCAo surgical procedure is similar to TE-stroke surgery, however, the transient occlusion is achieved using a suture instead of a clot as reported by Hoda et al (supra). Briefly, a 6-0 monofilament suture with ˜3-mm silicone-coated tip designed to induce tMCAo in mice (Doccol Corp, USA) was introduced into the ICA via an ECA stump, directed and gently advanced into the MCA region until the suture was wedged to occlude the proximal stem of MCA. The occlusion was maintained prior to withdrawing the filament after […], the ECA- arteriotomy was ligated and the reperfusion was allowed following suture withdrawal. The sham-operated group underwent similar procedures without occlusion, and mice recovered as above.
TTC is a white powder and the solution remains colorless, which is reduced to red 1,3,5-triphenylformazan (TPF) by the enzymatic action of various dehydrogenases primarily mitochondrial dehydrogenase from the living tissues, while the core remains as white. Therefore, larger white area indicates higher injury and infarction volume. After performing ATT, mice were overdosed and deeply anesthetized with high isofluorane (5%). Brains were very quickly perfused with cold 25 ml of 0.01 M phosphate-buffered saline (PBS), harvested fresh and immediately placed in a metallic mouse brain matrix. Looking at the infarcted area, 5 blades were placed in alternate gaps to cut and obtain […] coronal slices. Sections were individually placed in a 35-mm dish containing pre-warmed (37° C.) 3-ml of 5% TTC in PBS (Sigma) for 20-25 minutes at 37° C., followed by 2× washing with cold PBS and fixation with 10% formalin. In order to image, fixed sections were taken out of the dish and placed in order on a high-resolution Cannon Scanner. After scanning, images were cropped and saved for analysis. Corrected infarct volume was estimated using gray scale image and Scion Image software and presented as the Corrected % infarct volume normalized to the uninjured side.
Diabetes was induced in adult male mice (14±1 weeks of age) as confirmed after 7 days of STZ-injection, followed by tMCAo stroke surgery at 3 weeks post-STZ injection. Stroke was induced with 60-min suture occlusion followed by reperfusion with suture withdrawal. GRI therapy or vehicle was IV-infused 10-min prior to reperfusion and RIC therapy/ RIC-mock was performed 1 h after reperfusion. […] PbtO2 was measured at 6h post-reperfusion (N=6/gp) using a 50-um thick oxygen sensor integrated to an UniAmp multi-channel system (Unisense, Denmark). Measurement signal was averaged for 3 min during a period of stable output as shown in the representative real-time electrogram traces in FIGS. 9A-9D. FIG. 9A is representative of a mouse treated with vehicle and receiving mock RIC. FIG. 9B is representative of a mouse receiving vehicle and RIC therapy. FIG. 9C is representative of a mouse receiving GRI therapy and mock RIC. FIG. 9D is representative of a mouse receiving GRI therapy and RIC therapy.
Diabetic adult male mice (as described in Example 4) were subjected to tMCAo (N=10/gp) with or without GRI and/or RIC-therapies and outcome measures were performed at 24h post-stroke.

Where [1] appears, read: low-dose GRI combined with RIC therapy, vs all other 3 groups.

Each structure is given as a SMILES string.

Regarding `Cc1cc(C(N)=O)ccc1-n1c(CCC(=O)O)ccc1-c1ccc(-n2ccnc2)cc1` [GRI therapy, N6022], the “brain tissue oxygenation (PbtO2)” value (GRI IV 10 min prior to reperfusion followed by RIC therapy 1 h after reperfusion) was “showed enhanced efficacy of both, GRI and RIC-therapies, in improving benefits of reperfusion to increase PbtO2”. The “brain tissue oxygenation (PbtO2)” value (GRI alone (RIC-mock), IV 10 min prior to reperfusion, vs vehicle RIC-mock) was “improved PbtO2 significantly”. In addition, under “GRI singly (RIC-mock), N=10/gp”, the “% infarct volume” value is on record as “did not improve”, the “% swelling” value is given as “did not improve” and the “mean NDS” value is “did not improve”. Under setting [1], the “% infarct volume” value is “significantly improved”, the “% swelling” value is listed as “significantly improved” and the “mean NDS” value is “significantly improved”.
